Test results reported in patent US20250144054A1, “SMALL MOLECULE STAT3 INHIBITOR FOR TREATING TRIPLE NEGATIVE BREAST CANCER” (UNIVERSITY OF MARYLAND, BALTIMORE, priority 2022, published 2025).

What was measured:
MDA-MB-231 cells = test: Annexin V and PI flow cytometry, MDA-MB-231 cells; type: cell-based, human; conditions: MDA-MB-231, 8-12 hours, vs DMSO
Protocol: Flow cytometry analysis. Flow cytometry was performed to detect cell apoptosis. The APC Annexin V Apoptosis Detection Kit (Biolegend, San Diego, CA, USA) was used for Annexin V staining. Cells were seeded in a 35 mm culture dish at a density of 1×10^5 cells/dish. After overnight incubation, cells were treated with DMSO or LLL12B for 8-12 hours. Cells were harvested and stained with Annexin V-APC and propidium iodide (PI) according to the manufacturer's instructions. After staining, cells were counted using a FACSCanto II flow cytometer (BD Biosciences, San Jose, CA, USA).

ERK = test: EGF induced ERK phosphorylation, Western blot, T47D cells; type: cell-based, human; conditions: pretreated 2 hours, 50 ng/ml EGF 30 minutes
Protocol: (§1) (A) The chemical structures of LLL12B and LLL12. The carbamate ester bond of LLL12B is hydrolytically cleaved by the tumor-associated plasmin to release LLL12. (B) SUM159 cells were seeded in a 6-well plate and treated with LLL12B for 8 hours. Cells were stained with Phospho-Stat3 (Tyr705) and DAPI (indicated by arrows). Green: P-STAT3 (Y705); Blue: DAPI. T47D (C) and MDA-MB-231 (D) breast cancer cells were pretreated with DMSO or LLL12B in a serum-free medium for 2 hours and stimulated with 50 ng/ml of IL-6, IFN-γ, or EGF for additional 30 minutes. Cells were collected and analyzed by Western blot. GAPDH served as a protein loading control.
(§2) Western blot. Cells were collected and total protein was extracted using cell lysis buffer (Cell Signaling Technology, Danvers, MA, USA). Protein concentration was determined using the Pierce BCA Protein Assay Kit (Thermo Fisher Scientific, Waltham, MA, USA) according to the manufacturer's instructions. Equal amounts of protein were separated by 10% SDS-PAGE gels and transferred to PVDF membranes. Membranes were blocked in 5% non-fat milk at room temperature and probed with specific antibodies P-STAT3 (Y705), STAT3, Cyclin D1, Cleaved Caspase-3, P-STAT1 (Y701), STAT1, P-ERK, ERK or GAPDH (1:1000, Cell Signaling Technology, Danvers, MA, USA) at 4° C. overnight. […]

STAT3 = test: Western blot of P-STAT3 (Y705), STAT3, Cyclin D1, Cleaved Caspase-3 in 4T1 cells; type: cell-based, murine; conditions: 4T1, overnight, vs DMSO
Protocol: (A) MDA-MB-231, SUM159, and 4T1 cell lines were treated with DMSO or LLL12B overnight and the expression levels of P-STAT3 (Y705), STAT3, Cyclin D1, and Cleaved Caspase-3 were analyzed by Western blot. GAPDH served as a protein loading control. (B) MDA-MB-231 cells were treated with DMSO or C188-9 overnight and the expression levels of P-STAT3 (Y705), STAT3, Cyclin D1, and Cleaved Caspase-3 were analyzed by Western blot. (C) MDA-MB-231, SUM159, and 4T1 cells were seeded in a 96-well plate and treated with DMSO or LLL12B for 5 hours and a Caspase-3/7 Fluorescence Assay Kit was used to detect the activation of caspase-3/7. (D) MDA-MB-231, SUM159, and 4T1 cell lines were treated with DMSO or LLL12B for 8-12 hours, and flow cytometry was performed to analyze annexin V and PI staining. The quantification of apoptotic cells was shown in the right panel. ** P<0.01, *** P<0.001 and ****P<0.0001.
SiRNA and transfection. STAT3 siRNA and Negative Control siRNA (Cell Signaling Technology, Danvers, MA, USA) were used to knock down STAT3 in MDA-MB-231, SUM159, and 4T1 cell lines. Cells were transfected with STAT3 siRNA or Negative Control siRNA using Lipofectamine RNAiMAX (Invitrogen, Carlsbad, CA, USA) according to the manufacturer's instructions. After 72 hours, cell viability was examined by MTT cell viability assay, and the transfection efficiency was examined by western blot.
as §2

P-STAT3 (Y705) = test: Immunofluorescence staining of P-STAT3 (Y705) localization in SUM159 cells; type: cell-based, human; conditions: 8 hours, vs DMSO
Protocol: as §1
Immunofluorescence staining. SUM159 cells were seeded in a 6-well plate and treated with LLL12B or DMSO for 8 hours. Cells were fixed with 4% paraformaldehyde (PFA) for 15 minutes at room temperature and then permeabilized with ice-cold 100% methanol for 10 minutes at −20° C. After blocking in 3% Bovine Serum Albumin (BSA)/0.1% Triton X-100, cells were incubated with rabbit anti-Phospho-Stat3 (Tyr705) (1:100, Cell Signaling Technology, Danvers, MA, USA) overnight at 4° C., then with secondary antibody for 1 hour at room temperature. Cells were photographed using a Leica fluorescence microscope (Leica Microsystems Inc, Deerfield, IL, USA).

CN(C)C(=O)Oc1cccc2c1C(=O)c1cccc(S(N)(=O)=O)c1C2=O [LLL12B]
percentage of apoptotic cells (MDA-MB-231 cells): significantly increased
induction of P-ERK stimulated by EGF (ERK): did not inhibit
Cyclin D1 expression (STAT3): decreased
expression of Cleaved Caspase-3 (STAT3): enhanced
phosphorylation of STAT3 (STAT3): decreased
distribution of P-STAT3 (Y705) in the nucleus (P-STAT3 (Y705)): blocked
